Where two headings read alike, the source gives them in different places.
How the values were obtained:
[1] = PK study in Beagle dogs (plasma); format: in vivo; conditions: IV 1 mg/kg; for AUC(0-t) / C0 / half-life: dog
Method: Example 10 PK Study of Compound 135 in Beagle Dogs
(§1) Compound 135 was mixed with the vehicle (10% DMSO / 5% Solutol HS 15 / 85% saline), vortexed, and sonicated to prepare a clear solution at 0.5 mg/mL. Beagle dogs weighing approximately 10 kg (equal number of males and females, non-fasted) were intravenously administered the compound. Plasma was collected at specified time points. Drug concentration was analyzed by LC-MS/MS, and pharmacokinetic parameters were calculated using Phoenix WinNonlin software (Pharsight Corporation, USA). Table 13 Beagle Dog PK Data for Intravenous Compound Monotherapy

H1975 = test: Cell proliferation experiment (CellTiter-Glo); format: cell-based; conditions: Homo sapiens, NCI-H1975; H1975, KRAS WT; 96 h incubation
KRAS G12D [2] = biological target: T1, KRAS G12D (Homo sapiens, UniProt P01116, G12D)
in vitro [3] = conditions: rat, microsomes
PK59 = test: Cell proliferation experiment (CellTiter-Glo); format: cell-based; conditions: PK-59; PK59, KRAS mutation type G12D; 96 h incubation
[4] = PK study in ICR mice (plasma); format: in vivo; conditions: Female ICR mice, IV 1 mg/kg; for AUC(0-t) / C0 / half-life: mouse
Method: Example 9 PK Study of Compound in ICR Mice (plasma)
as §1, with “The compound” for “Compound 135”, “0.2” for “0.5”, “Female ICR mice aged 6 to 7 weeks (non-fasted)” for “Beagle dogs weighing approximately 10 kg (equal number of males and females, non-fasted)”, “12 Mouse” for “13 Beagle Dog”

H358 = test: Cell proliferation experiment (CellTiter-Glo); format: cell-based; conditions: Homo sapiens, NCI-H358; H358, KRAS mutation type G12C; 96 h incubation
KRAS G12D [5] = biological target: T1, KRAS G12D; test: Western blot study of KRAS degradation in AGS cells; format: cell-based; design: endogenous in cells; host or cells: AGS; conditions: 3 h incubation
HCT116 = test: Cell proliferation experiment (CellTiter-Glo); format: cell-based; conditions: Homo sapiens, HCT-116; HCT116, KRAS mutation type G13D; 96 h incubation
KRAS G12V = biological target: T2, KRAS G12V (Homo sapiens, UniProt P01116, G12V); test: Western blot study of KRAS degradation in SW620 cells; format: cell-based; conditions: 3 h incubation
T2 construct: endogenous in cells; host or cells: SW620

KRAS G13D = biological target: T3, KRAS G13D (Homo sapiens, UniProt P01116, G13D); test: Western blot study of KRAS degradation in HCT116 cells; format: cell-based; conditions: 3 h incubation
T3 construct: endogenous in cells; host or cells: HCT116

in vitro [6] = conditions: dog, microsomes
SW620 = test: Cell proliferation experiment (CellTiter-Glo); format: cell-based; conditions: read-out: IC50(nM) SW620
in vitro [7] = conditions: mouse, microsomes
AGS = test: Cell proliferation experiment (CellTiter-Glo); format: cell-based; conditions: read-out: IC50(nM) AGS
in vitro [8] = conditions: human, microsomes
KRAS G12D [9] = biological target: T1, KRAS G12D; test: cell-based; conditions: AGS
PK-59 cells = test: Anti-tumor effects in a human pancreatic cancer xenograft model carrying KRAS^G12D mutation; format: in vivo, BALB/c Nude Crlj mice; conditions: PK-59 xenograft; for TGI After 4 Weeks of Administration (%): tail vein
[10] = Metabolic stability in liver microsomes (NADPH); conditions: Dog; 0.5 mg/mL liver microsomes, NADPH, 37°C
[11] = Metabolic stability in liver microsomes (NADPH); conditions: Rat; 0.5 mg/mL liver microsomes, NADPH, 37°C
[12] = Metabolic stability in liver microsomes (NADPH); conditions: Mouse; 0.5 mg/mL liver microsomes, NADPH, 37°C
[13] = Metabolic stability in liver microsomes (NADPH); conditions: Human; 0.5 mg/mL liver microsomes, NADPH, 37°C
[14] = PK study in ICR mice (whole blood); format: in vivo; conditions: Female ICR mice, IV 1 mg/kg
Method: Example 8 PK Study of Compound in ICR Mice (whole blood)
as §1, with “The compound” for “Compound 135”, “0.2” for “0.5”, “Female ICR mice aged 6 to 7 weeks (non-fasted)” for “Beagle dogs weighing approximately 10 kg (equal number of males and females, non-fasted)”, “Whole blood” for “Plasma”, “11 Mouse” for “13 Beagle Dog”

Compound | Cl_obs [1] [mL/min/kg] | Vss_obs [1] [L/kg] | AUC(0-t) [1] [ng·h/mL] | IC50 (H1975) [nM] | DC50 (KRAS G12D [2]) [nM] | microsomal CLint (in vitro [3]) [µL/min/mg] | IC50 (PK59) [nM] | IC50 (HCT116) [nM] | microsomal CLint (in vitro [6]) [µL/min/mg] | IC50 (SW620; Homo sapiens, SW-620, 96 h) [nM] | microsomal CLint (in vitro [7]) [µL/min/mg] | IC50 (AGS; Homo sapiens, AGS, 96 h) [nM] | microsomal CLint (in vitro [8]) [µL/min/mg] | Dmax (KRAS G12D [9]) [%] | The in vitro intrinsic clearance in liver microsomes (CLint, in vitro, µL/min/mg protein) Dog [10] [µL/min/mg protein] | The in vitro intrinsic clearance in liver microsomes (CLint, in vitro, µL/min/mg protein) Rat [11] [µL/min/mg protein] | The in vitro intrinsic clearance in liver microsomes (CLint, in vitro, µL/min/mg protein) Mouse [12] [µL/min/mg protein] | The in vitro intrinsic clearance in liver microsomes (CLint, in vitro, µL/min/mg protein) Human [13] [µL/min/mg protein] | IC50 (SW620) [nM] | IC50 (AGS) [nM] | also measured
CCc1c(F)ccc2cc(O)cc(-c3ncc4c(N5CCC[C@@](C)(O)C5)nc(OCC5(CN6CCC(Oc7cnc(-c8cn([C@H](C(=O)N9C[C@H](O)C[C@H]9C(=O)N[C@@H](C)c9ccc(-c%10scnc%10C)cc9)C(C)C)nn8)cn7)CC6)CC5)nc4c3F)c12 [Compound 144] | 6.19 | 3.46 | 2520 | > 10000 | 1.1 | 6.2 | 4.4 | 13 | 7.4 | 8.4 | 10.9 | 3 | 18.8 | 95 |  |  |  |  |  |  | C0 [1]: 9890 ng/mL; half-life [1]: 1230 min; Cl_obs [4]: 5.81 mL/min/kg; Vss_obs [4]: 1.54 L/kg; AUC(0-t) [4]: 2730 ng·h/mL; C0 [4]: 5530 ng/mL; half-life [4]: 560 min; IC50 (H358): 5 nM; KRAS G12D protein degradation (Western blot, Fig. 5) (KRAS G12D [5]): effectively degraded; KRAS G12V protein degradation (Western blot, Fig. 5) (KRAS G12V): effectively degraded; KRAS G13D protein degradation (Western blot, Fig. 5) (KRAS G13D): effectively degraded; TGI After 4 Weeks of Administration (%) (PK-59 cells; 1 mg/kg, QW): 82%; TGI After 4 Weeks of Administration (%) (PK-59 cells; 3 mg/kg, QW): 93%; TGI After 4 Weeks of Administration (%) (PK-59 cells; 10 mg/kg, QW): 113%
(2S,4R)-1-((S)-2-(5-(((3S,7aS)-7a-(((7-(8-ethyl-7-fluoro-3-hydroxynaphthalen-1-yl)-8-fluoro-4-( (R)-3-hydroxy-3-methylpiperidin-1-yl)pyrido[4,3-d]pyrimidin-2-yl)oxy)methyl)-6-methylenehex ahydro-1H-pyrrolidin-3-yl)methoxy)methyl)-1H-1,2,3-triazol-1-yl)-3-methylbutanoyl)-4-hydrox y-N-(((S)-1-(4-(4-methylthiazol-5-yl)phenyl)ethyl)pyrrolidine-2-carboxamide [Compound 120] |  |  |  |  | 11 |  |  |  |  |  |  |  |  |  | 113 | 9.3 | 48.5 | 128 | 102 | 12 | Dmax (%) (KRAS G12D [2]): 95%
CCc1c(F)ccc2cc(O)cc(-c3ncc4c(N5CCC[C@@](C)(O)C5)nc(OCC5(CN6CCC(Oc7ccc(-c8cn([C@H](C(=O)N9C[C@H](O)C[C@H]9C(=O)N[C@@H](C)c9ccc(-c%10scnc%10C)cc9)C(C)C)nn8)cn7)CC6)CC5)nc4c3F)c12 [Compound 135] | 5.74 | 2.23 | 2780 | > 10000 | 14 | 1.5 | 14.7 | 33 | 26.9 | 39 | 13.2 | 5.2 | 11.3 | 95 |  |  |  |  |  |  | C0 [1]: 11000 ng/mL; half-life [1]: 1280 min; Cl_obs [4]: 5.80 mL/min/kg; Vss_obs [4]: 1.61 L/kg; AUC(0-t) [4]: 2750 ng·h/mL; C0 [4]: 5840 ng/mL; half-life [4]: 415 min; IC50 (H358): 7.3 nM; TGI After 4 Weeks of Administration (%) (PK-59 cells; 1 mg/kg, QW): 70%; TGI After 4 Weeks of Administration (%) (PK-59 cells; 3 mg/kg, QW): 92%; TGI After 4 Weeks of Administration (%) (PK-59 cells; 10 mg/kg, QW): 106%; TGI After 4 Weeks of Administration (%) (PK-59 cells; 20 mg/kg, Q2W): 101%; TGI at 20 mg/kg once every two weeks versus 10 mg/kg once weekly (PK-59 cells; 4 weeks of administration): comparable TGI
CCc1c(F)ccc2cc(O)cc(-c3ncc4c(N5CCC[C@@](C)(O)C5)nc(OCC5(CN6CCC7(CC6)CN(c6ccc(-c8cn([C@H](C(=O)N9C[C@H](O)C[C@H]9C(=O)N[C@@H](C)c9ccc(-c%10scnc%10C)cc9)C(C)C)nn8)cn6)C7)CC5)nc4c3F)c12 [Compound 118] |  |  |  | > 10000 | 11 | 3.4 | 12.2 | 37 | 17.2 | 26 | 11.4 | 13 | 21.3 | 95 |  |  |  |  |  |  | 
((7-(8-ethyl-7-fluoro-3-hydroxynaphthalen-1-yl)-8-fluoro-4-(R)-3-hydroxy-3-methylpiperidin-1-yl)pyrido[4,3-d]pyrimidin-2-yl)oxy)methyl)-6-methylenehexahydro-1H-pyrrolizin-3-yl)methyl 2-(1-(S)-1-(2S,4R)-4-hydroxy-2-(S)-1-(4-(4-methylthiazol-5-yl)phenyl)ethylcarbamoyl)pyrrolidi n-1-yl)-3-methyl-1-oxobutan-2-yl)-1H-1,2,3-triazol-4-yl)-7-azaspiro[3.5]nonane-7-carboxylate [Compound 127] |  |  |  |  |  |  |  |  |  |  |  |  |  |  | 31.5 | 15.6 | 42.4 | 52.8 | 223 | 47 | 
CCc1c(F)ccc2cc(O)cc(-c3ncc4c(N5CCC[C@@](C)(O)C5)nc(OCC5(CN6CCC7(CC6)CC(c6cn([C@H](C(=O)N8C[C@H](O)C[C@H]8C(=O)N[C@@H](C)c8ccc(-c9scnc9C)cc8)C(C)C)nn6)C7)CC5)nc4c3F)c12 [Compound 73, (2S,4R)-1-((S)-2-(4-(7-((1-((7-(8-ethyl-7-fluoro-3-hydroxynaphthalen-1-yl)-8-fluoro-4-(((R)-3-hydroxy-3-methylpiperidin-1-yl)pyrido[4,3-d]pyrimidin-2-yl)oxy)methyl)cyclopropyl)methyl)-7-azaspiro[3.5]nonan-2-yl)-1H-1,2,3-triazol-1-yl)-3-methylbutanoyl)-4-hydroxy-N-((S)-1-(4-(4-methylthiazol-5-yl)phenyl)ethyl)pyrrolidine-2-carboxamide] |  |  |  |  | 17 |  |  |  |  |  |  |  |  |  | 18.9 | 9.8 | 7.1 | 13.8 | 81 | 22 | Dmax (%) (KRAS G12D [2]): 95%; AUClast [14]: 2051 ng·h/mL; C0 [14]: 3008 ng/mL; t1/2 [14]: 5.07 h; Cl_obs ([14]; 1 mg/kg): 7.97 mL/min/kg; Vss_obs ([14]; 1 mg/kg): 1.91 L/kg

Reference: EP4631940A1, “COMPOUND TARGETING PAN-KRAS PROTEIN DEGRADATION AGENT AND USE THEREOF” (Betta Pharmaceuticals Co., Ltd., priority 2022, dated 2024)
